Measurements reported in patent US11261201B2 (priority 2018, dated 2022).
In brackets after ≈: the same amount, converted by molar mass. Structures can show the parent of a compound that is named as a salt. Where two headings read alike, the source gives them in different places.

How the values were obtained:
[1] = system: H37RvMA; experiment: Tuberculosis Alamar Blue/Resazurin assay (MIC); format: cell-based; conditions: Mycobacterium tuberculosis, H37RV, read-out: WT H37Rv MTB Activity
[2] = system: E. coli; experiment: Gram negative MIC protocol (OD600, LB, 24 h); conditions: Escherichia coli
Procedure: (§1) Overnight bacterial cultures were grown in LB with no added antibiotics at 37° C. with shaking. A 1:1000 dilution of these cultures into LB was exposed to concentration gradients of compounds in 96-well plates (100 μL per well assay volume). Resulting plates were incubated at 37° C. for 24 h without shaking, and OD600 was measured at the end of the incubation. MICs were determined as the lowest concentrations at which OD600 remained at baseline.

[3] = system: A. baumannii; experiment: Gram negative MIC protocol (OD600, LB, 24 h); conditions: Acinetobacter baumannii
Procedure: as §1

[4] = read-out: MIC E. coli delta-TolC LB Media, E. coli delta-TolC, LB media, OD600
[5] = read-out: MIC WT E. coli LB Media, WT E. coli, LB media, OD600
[6] = read-out: MIC A. baumannii LB Media, A. baumannii, LB media, 24 h, OD600
[7] = read-out: MIC E. coli delta-TolC LB Media, E. coli delta-TolC strain, LB media, 24 h, OD600
[8] = read-out: MIC WT E. coli LB Media, wild-type E. coli, LB media, 24 h, OD600

Compound	MIC ([1]; WT H37Rv MTB)	MIC [2, 4]	MIC [2, 5]	MIC [3, 6]	MIC [2, 7]	MIC [2, 8]	MIC [1]	MIC ([3]; read-out: MIC A. baumannii LB Media)
C1=C(CCNCc2ccccc2)c2ccccc2C1 [B27]	91 µM (≈ 22.7 µg/mL)	> 150 µM	> 150 µM	> 150 µM				
CC(C)c1ccccc1CNCCC1CCCCC1 [B227, 2-cyclohexyl-N-(2-isopropylbenzyl)ethanamine hydrochloride]	150 µM			170 µM	12 µM	170 µM		
CC(CC1CCCCC1)NCc1ccccc1CS(=O)(=O)N[C@H]1C[C@H](C(=O)O)C1 (stereo partly drawn) [B456, (1S,3S)-3-(((2-(((1-cyclohexylpropan-2-yl)amino)methyl)phenyl)methyl)sulfonamido)cyclobutane-1-carboxylic acid]	> 150 µM	33 µM (≈ 13.9 µg/mL)	> 150 µM	> 150 µM				
CC1CCCN(C(=O)COc2ccccc2CNC(C)CC2CCCCC2)C1 (stereo not drawn) [B273]	150 µM (≈ 58 µg/mL)			> 150 µM	4 µM (≈ 1.55 µg/mL)	> 150 µM		
O=C1c2ccccc2CN1CCC1CCCCC1 [B419, 2-(2-cyclohexylethyl)isoindolin-1-one]	0.6 µM (≈ 0.146 µg/mL)	150 µM (≈ 36.5 µg/mL)	> 150 µM	> 150 µM				
Cc1ccc(COc2ccccc2CNC(C)CC2CCCCC2)cc1 (stereo not drawn) [B460, 1-cyclohexyl-N-(2-((4-methylbenzyl)oxy)benzyl)propan-2-amine]	10 µM (≈ 3.52 µg/mL)	< 1 µM	33 µM (≈ 11.6 µg/mL)	33 µM (≈ 11.6 µg/mL)				
COC(=O)Cn1ccc2cccc(CNC(C)CC3CCCCC3)c21 (stereo not drawn) [B435, methyl 2-(7-(((1-cyclohexylpropan-2-yl)amino)methyl)-1H-indol-1-yl)acetate hydrochloride]	> 150 µM	150 µM	> 150 µM	> 150 µM				
CC(CC1CCCCC1)NCc1ccccc1OCCOC(C)(C)C (stereo not drawn) [B307]	150 µM (≈ 52.1 µg/mL)			> 150 µM	20 µM (≈ 6.95 µg/mL)	> 150 µM		
CC(CC1CCCCC1)NCc1ccccc1OCC(=O)NCC1CCCO1 (stereo not drawn) [B336]	> 150 µM			> 150 µM	33 µM (≈ 12.8 µg/mL)	> 150 µM		
CN1CC(COc2ccccc2CNCCC2=CCCCC2)OC1=O (stereo not drawn) [B371]	> 150 µM			> 150 µM	33 µM (≈ 11.4 µg/mL)	> 150 µM		
CC(CC1CCCCC1)NCc1ccccc1OCc1ccccc1Br (stereo not drawn) [B381]	20.2 µM (≈ 8.41 µg/mL)			55 µM (≈ 22.9 µg/mL)	4 µM (≈ 1.67 µg/mL)	55 µM (≈ 22.9 µg/mL)		
CC(CC1CCCCC1)NCc1cccc2ccn(C)c12 (stereo not drawn) [B441, 1-cyclohexyl-N-((1-methyl-1H-indol-7-yl)methyl)propan-2-amine hydrochloride]	33.4 µM	91 µM	> 150 µM	> 150 µM				
CC(CC1CCCCC1)NCc1ccccc1OCc1nc(C(C)C)no1 (stereo not drawn) [B323]	150 µM (≈ 55.7 µg/mL)			> 150 µM	4 µM (≈ 1.49 µg/mL)	> 150 µM		
CC(CC1CCCCC1)NCc1ccccc1OCC(=O)NC(C)C(=O)N(C)C (stereo not drawn) [B270]	> 150 µM			> 150 µM	20 µM (≈ 8.07 µg/mL)	> 150 µM		
c1ccc(CNC[C@@H]2C[C@H]2c2ccccc2)cc1 [B61]	> 150 µM	> 150 µM	> 150 µM	> 150 µM				
CC(CC1CCCCC1)NCc1ccccc1OCCCS(C)(=O)=O (stereo not drawn) [B299]	> 150 µM			150 µM (≈ 55.1 µg/mL)	4 µM (≈ 1.47 µg/mL)	150 µM (≈ 55.1 µg/mL)		
C#CCNC(=O)COc1ccccc1CNC(C)CC1CCCCC1 (stereo not drawn) [B359]	> 150 µM			150 µM (≈ 51.4 µg/mL)	12 µM (≈ 4.11 µg/mL)	> 150 µM		
c1ccc(CNCCC2CCCCCC2)cc1 [B102]	91 µM (≈ 21.1 µg/mL)	90 µM (≈ 20.8 µg/mL)	120 µM (≈ 27.8 µg/mL)	150 µM (≈ 34.7 µg/mL)				
CNc1cccc(CNCCC2CCCCC2)c1 [B406, 3-(((2-cyclohexylethyl)amino)methyl)-N-methylaniline]	150 µM (≈ 37 µg/mL)	> 150 µM	> 150 µM	> 150 µM				
CC(CC1CCCCC1)NCc1ccccc1Oc1ccccc1F (stereo not drawn) [B405, 1-cyclohexyl-N-(2-(2-fluorophenoxy)benzyl)propan-2-amine]	33.4 µM (≈ 11.4 µg/mL)	5 µM (≈ 1.71 µg/mL)	91 µM (≈ 31.1 µg/mL)	150 µM (≈ 51.2 µg/mL)				
CC(CC1CCCCC1)NCc1ccccc1CS(=O)(=O)N[C@H](C)C(=O)O (stereo partly drawn) [B455, ((2-(((1-cyclohexylpropan-2-yl)amino)methyl)benzyl)sulfonyl)-D-alanine]	> 150 µM	91 µM (≈ 36.1 µg/mL)	> 150 µM	> 150 µM				
c1ccc(CNCC2CCc3ccccc32)cc1 (stereo not drawn) [B213, N-benzyl-1-(2,3-dihydro-1H-inden-1-yl)methanamine hydrochloride]	> 150 µM			> 300 µM	> 300 µM	> 300 µM		
COCCOCCOc1ccccc1CNC(C)CC1CCCCC1 (stereo not drawn) [B301]	> 150 µM			> 150 µM	12 µM (≈ 4.19 µg/mL)	> 150 µM		
C1=CCC(CCNCc2ccccc2)CC1 (stereo not drawn) [B156, N-benzyl-2-(cyclohex-3-enyl)ethanamine hydrochloride]		150 µM	150 µM				> 150 µM	150 µM
